“Also recorded” adds a separate entry of the source. Where two headings read alike, the source gives them in different places.
Assays:
[1] = Antitumor activity of the metabolite administered as such; details: compared with progenitor TR; initial experiments
[2] = target: bacterial IMP dehydrogenase; experiment: Inhibition of bacterial IMP dehydrogenase; assay type: biochemical; details: chemically synthesized TAD; read-out: Ki against bacterial IMP dehydrogenase
P388 leukemic cells = experiment: Cytotoxicity against P388 leukemic cells in culture; assay type: cell-based; details: Mus musculus, read-out: Cytotoxicity Against P388 Leukemic Cells in Culture IC50 (median inhibitory concentration)

NC(=O)c1csc([C@@H]2O[C@H](COP(=O)(O)OP(=O)(O)OC[C@H]3O[C@@H](n4cnc5c(N)ncnc54)[C@H](O)[C@@H]3O)[C@@H](O)[C@H]2O)n1 [TAD, adenosine 5'-(trihydrogen diphosphate) 5'→5'-ester with 4-carboxamide-2-β-D-ribofuranosylthiazole]
Antitumor activity [1]: active when administered as such; also recorded: superior to that of its progenitor
Ki [2]: 3.4 µM
IC50 (P388 leukemic cells; P388, chemically synthesized TAD): 3.5 µM
IC50 (P388 leukemic cells; P388, enzymatically (biologically) synthesized TAD): 2.5 µM

Source: patent publication US4446315A, “Adenosine 5'-triphosphate-4-carboxamide-ribofuranosylthiazole” (The United States of America as represented by the …, priority 1982, dated 1984)
